# Data as given in publication PMC5562305, “Impact of novel palmitoylated prolactin-releasing peptide analogs on metabolic changes in mice with diet-induced obesity” (PLoS ONE, 2017).
# Starred links: 1 amine or outer side, 2 acyl side, 3 side chain; linkers in the order of their positions; H or OH if unused. Residues, ends and D or L forms follow the SMILES beside them. Groups on a side chain read outwards from the residue. *: point of attachment. TTDA(Palmitoyl) = CCCCCCCCCCCCCCCC(=O)NCCCOCCOCCOCCCN*; Suc = O=C(CCC(=O)[*:2])[*:1]
# Tested on: urinary metabolites
# Assay: NMR-based metabolomics of urine of DIO mice
# Assay type: in vivo, C57BL/6 mice
# Design: key to DMA, Mean / DMG, Mean / MA, Mean / TMA, Mean / acetate, Mean / allantoin, Mean / carnitine, Mean / choline, Mean / cis-aconitate, Mean / creatine+creatinine, Mean / creatine, Mean / creatinine, Mean / ethanolamine, Mean / formate, Mean / galactose, Mean / glucose, Mean / glycine, Mean / lactate, Mean / succinate, Mean / vinylacetylglycine, Mean: TSA-normalized intensity of the metabolite's representative NMR signal
# Method: Urine samples for NMR-based metabolomics were collected prior to the start of the interventions and at the end of the experiment. For overnight urine collection (from 5 pm to 8 am), the mice were housed in individual metabolic cages (Tecniplast, Buguggiate, Italy) without access to food. Samples were collected with the addition of NaN3 and stored at -80°C until NMR analysis.
# The urine samples were thawed at room temperature and centrifuged at 13 684 x g for 5 min prior to the NMR experiments. A 200-μl aliquot of supernatant was diluted with 340 μl of H2O mixed with 60 μl of phosphate buffer (1.5 M KH2PO4 in D2O containing 2 mM NaN3 and 0.1% trimethylsilyl propionic acid (TSP), pH 7.4) and transferred to a 5-mm NMR tube. The NMR data were acquired with a 600 MHz Bruker Avance III spectrometer (Bruker BioSpin, Rheinstetten, Germany) equipped with a 5-mm TCI cryogenic probe head. All of the experiments were performed at 300 K. Automatic tuning, matching, shimming and adjusting of the 90° pulse length were performed for each sample.
# As mouse urine naturally contains urinary proteins, the NMR spectra were acquired using a Carr-Purcell-Meiboom-Gill (CPMG) pulse sequence with water presaturation (Bruker pulse sequence cpmgpr1d) to eliminate the strong protein background. […] For better metabolite identification, a short J-resolved experiment with presaturation (NS = 2, SW = 16 ppm, TD = 8k, number of increments = 40, SW = 78.125 Hz in the indirect dimension, and relaxation delay = 2 s) was executed for all samples. Additional two-dimensional ^1H-^1H correlation spectroscopy (COSY) and ^1H-^13C heteronuclear multiple-quantum correlation (HMQC) experiments (Bruker pulse sequences cosygpprqf and hmqcphpr) were performed for selected samples.
# The acquired data were processed using Topspin 3.2 software (Bruker BioSpin, Rheinstetten, Germany). Line broadening of 0.3 Hz was applied on free induction decays (FIDs) prior to Fourier transformation. The spectra were automatically phased, baseline corrected and referenced to the signal of TSP (0.00 ppm).
# The assignment of individual metabolites was achieved by comparing the proton spectra with the spectra of pure metabolites using Chenomx NMR Suite 7.6 (Chenomx Inc., Edmonton, AB, Canada), the HMDB database and previously published metabolomic data. The identification of metabolites was supported through J-resolved and COSY experiments and, if possible, confirmed using carbon chemical shifts extracted from the HMQC spectra.
# For quantitation of individual metabolites, the CPMG spectra were uniformly binned in the range of 0.10–10.00 ppm to 0.01-ppm intervals using AMIX software (Bruker BioSpin, Rheinstetten, Germany). This procedure reduced the dimensionality of the data, eliminated chemical shift variations and thus simplified the reproducible automatic quantification. Regions corresponding to water (4.60–4.90 ppm) and urea (5.60–6.00 ppm) were removed prior to analysis. As the dilutions of the original urine samples differed (due to the differences in water intake during urine collection), all of the spectra were normalized to the total spectral area (TSA). For each identified metabolite, one representative signal was chosen and then quantified as the sum of appropriate adjacent 0.01-ppm bins to cover the whole signal width. The metabolite concentration was expressed as the TSA-normalized intensity of the respective signal. For selection of an appropriate statistical method (parametric or non-parametric) the Lilliefors test of normality was performed. […] Metabolite alterations with a P < 0.05 were considered statistically significant. Statistical analysis was performed using Matlab software (“MATLAB version 8.6 (R2015b). Natick, Massachusetts: The MathWorks Inc., 2015.,” n.d.). […]
# [1] = urine NMR signal, DIO mice, group mean
# [2] = urine of DIO mice, NMR metabolomics, difference of analog mean vs saline mean
compound,measurement,setting,value
CCCCCCCCCCCCCCCC(=O)NCCCOCCOCCOCCCNC(=O)CCC(=O)NCCCC[C@H](NC(=O)[C@@H](NC(=O)[C@H](CCC(=O)O)NC(=O)[C@H](CCSC)NC(=O)[C@H](CO)NC(=O)[C@H](Cc1c[nH]cn1)NC(=O)[C@H](CCCNC(=N)N)NC(=O)[C@H](Cc1c[nH]cn1)NC(=O)[C@@H](NC(=O)[C@H](CCCNC(=N)N)NC(=O)[C@H](CO)NC(=O)CCC(=O)NCCCOCCOCCOCCCNC(=O)CCCCCCCCCCCCCCC)[C@@H](C)O)[C@@H](C)CC)C(=O)N[C@H](C(=O)N1CCC[C@H]1C(=O)N[C@@H](CC(=O)O)C(=O)N[C@H](C(=O)N[C@@H](CC(N)=O)C(=O)N1CCC[C@H]1C(=O)N[C@@H](C)C(=O)N[C@@H](Cc1c[nH]c2ccccc12)C(=O)N[C@@H](Cc1ccc(O)cc1)C(=O)N[C@@H](C)C(=O)N[C@@H](CO)C(=O)N[C@@H](CCCNC(=N)N)C(=O)NCC(=O)N[C@H](C(=O)N[C@@H](CCCNC(=N)N)C(=O)N1CCC[C@H]1C(=O)N[C@H](C(=O)NCC(=O)N[C@@H](CCCNC(=N)N)C(=O)N[C@@H](Cc1ccccc1)C(N)=O)C(C)C)[C@@H](C)CC)[C@@H](C)CC)[C@@H](C)O [analog 3] ({TTDA(Palmitoyl)-Suc}-SRTHRHSMEIK([Suc-TTDA(Palmitoyl)])TPDINPAWYASRGIRPVGRF-NH2),"2-OG (2.45 ppm), Mean",[1],11.878
same,"2-OG (3.01 ppm), Mean",[1],10.469
same,"2-PY (8.33 ppm), Mean",[1],1.098
same,"3-indoxylsulfate (7.51 ppm), Mean",[1],1.344
same,"3-indoxylsulfate (7.71 ppm), Mean",[1],0.810
same,"4-PY (7.97 ppm), Mean",[1],2.017
same,"4-PY (8.55 ppm), Mean",[1],0.633
same,"DMA, Mean",[1],5.618
same,"DMG, Mean",[1],1.853
same,"MA, Mean",[1],3.016
same,"MNA (8.90 ppm), Mean",[1],0.487
same,"MNA (8.97 ppm), Mean",[1],0.470
same,"MNA (9.265 ppm), Mean",[1],0.490
same,"MNA-Nox (7.75 ppm), Mean",[1],0.972
same,"MNA-Nox (8.13 ppm), Mean",[1],0.792
same,"MNA-Nox (8.49 ppm), Mean",[1],0.511
same,"MNA-Nox (8.75 ppm), Mean",[1],0.485
same,"N-carbamoylalanine (2.38 ppm), Mean",[1],11.854
same,"N-carbamoylalanine (3.31 ppm), Mean",[1],9.499
same,"N-isovalerylglycine + oxovalerate (0.92 ppm), Mean",[1],16.056
same,"TMA, Mean",[1],11.780
same,"acetate, Mean",[1],3.429
same,"allantoin, Mean",[1],22.447
same,"carnitine, Mean",[1],6.067
same,"choline, Mean",[1],1.970
same,"cis-aconitate, Mean",[1],8.481
same,"citrate (2.55 ppm), Mean",[1],29.434
same,"citrate (2.69 ppm), Mean",[1],26.220
same,"creatine+creatinine, Mean",[1],24.904
same,"creatine, Mean",[1],7.343
same,"creatinine, Mean",[1],11.686
same,"ethanolamine, Mean",[1],8.370
same,"formate, Mean",[1],0.199
same,"fumarate, Mean",[1],0.151
same,"galactose, Mean",[1],0.578
same,"glucose, Mean",[1],3.207
same,"glycine, Mean",[1],5.874
same,"hexanoylglycine + acids (0.88 ppm), Mean",[1],15.361
same,"hippurate (7.55 ppm), Mean",[1],3.987
same,"hippurate (7.64 ppm), Mean",[1],2.057
same,"hippurate (7.84 ppm), Mean",[1],4.311
same,"lactate, Mean",[1],6.853
same,"multiplet acids (1.6 ppm), Mean",[1],12.521
same,"putrescin, Mean",[1],8.726
same,"succinate, Mean",[1],9.267
same,"taurine (3.27 ppm), Mean",[1],24.146
same,"taurine (3.43 ppm), Mean",[1],20.508
same,"trigonelline (8.84 ppm), Mean",[1],0.263
same,"trigonelline (9.13 ppm), Mean",[1],0.106
same,"vinylacetylglycine, Mean",[1],3.527
same,"2-OG (2.45 ppm), Saline/analog %",[2],0.010%
same,"2-OG (3.01 ppm), Saline/analog %",[2],0.022%
same,"2-PY (8.33 ppm), Saline/analog %",[2],-0.056%
same,"3-indoxylsulfate (7.51 ppm), Saline/analog %",[2],0.032%
same,"3-indoxylsulfate (7.71 ppm), Saline/analog %",[2],0.052%
same,"4-PY (7.97 ppm), Saline/analog %",[2],0.115%
same,"4-PY (8.55 ppm), Saline/analog %",[2],0.091%
same,"DMA, Saline/analog %",[2],0.119%
same,"N-carbamoylalanine (2.38 ppm), Saline/analog %",[2],0.101%
same,"N-carbamoylalanine (3.31 ppm), Saline/analog %",[2],0.00116%
same,"N-isovalerylglycine + oxovalerate (0.92 ppm), Saline/analog %",[2],0.108%
same,"TMA, Saline/analog %",[2],-0.031%
same,"acetate, Saline/analog %",[2],-0.087%
same,"allantoin, Saline/analog %",[2],0.112%
same,"carnitine, Saline/analog %",[2],0.019%
same,"choline, Saline/analog %",[2],-0.000203%
same,"cis-aconitate, Saline/analog %",[2],-0.045%
same,"citrate (2.55 ppm), Saline/analog %",[2],-0.096%
same,"citrate (2.69 ppm), Saline/analog %",[2],-0.120%
same,"creatine+creatinine, Saline/analog %",[2],0.092%
